Measurements from US20230295087A1, “AGONISTS OF ROR GAMMAt” (BRISTOL-MYERS SQUIBB COMPANY, priority 2019, published 2023).

Target: T1, human RORgT (Homo sapiens, UniProt P51449)
T1 construct: expressed in transfected cells
T1 sequence (P51449 267-516): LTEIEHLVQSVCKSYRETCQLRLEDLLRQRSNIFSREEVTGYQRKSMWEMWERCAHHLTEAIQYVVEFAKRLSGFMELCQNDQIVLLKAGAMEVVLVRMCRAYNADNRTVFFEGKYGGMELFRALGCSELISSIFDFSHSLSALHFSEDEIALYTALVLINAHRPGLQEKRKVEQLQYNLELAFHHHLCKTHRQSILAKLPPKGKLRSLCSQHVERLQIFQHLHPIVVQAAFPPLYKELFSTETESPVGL
Assay: RORgT Gal4 Luciferase Reporter Gene Assay
Type: cell-based
Conditions: engineered Jurkat cells overexpressing RORgT (LBD or full length) fused with Gal4 Luc reporter; 18 hours at 37° C.; luminescence
In short: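 Jurkat cells expressing Gal4 Luc with either RORgT LBD (aa267-516) or full-length human RORgT, 10,000 cells/well, treated with compound (40 µM to 0.67 nM final, 3-fold dilutions) for 18 h at 37° C. Steady-Glo luminescence read; inhibition of constitutive activity as % signal-window reduction relative to a control compound.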

SMILES | EC50 [nM]
O=C1CCCN1CCN1CC[C@@]2(S(=O)(=O)c3ccccc3)c3ccc(OCc4c(Cl)cccc4Cl)cc3CC[C@@H]12 [Example 71, 1-{2-[(3aR,9bR)-9b-(benzenesulfonyl)-7-[(2,6-dichlorophenyl)methoxy]-1H,2H,3H,3aH,4H,5H,9bH-benzo[e]indol-3-yl]ethyl}pyrrolidin-2-one] | 667
CC(C)(O)C(=O)N1CC[C@@]2(S(=O)(=O)c3ccccc3)c3ccc(OCc4c(Cl)cccc4Cl)cc3CC[C@@H]12 [Example 72, 1-[(3aR,9bR)-9b-(benzenesulfonyl)-7-[(2,6-dichlorophenyl)methoxy]-1H,2H,3H,3aH,4H,5H,9bH-benzo[e]indol-3-yl]-2-hydroxy-2-methylpropan-1-one] | 199
CCOC(=O)CNC(=O)N1CC[C@@]2(S(=O)(=O)c3ccccc3)c3ccc(OCc4c(Cl)cccc4Cl)cc3CC[C@@H]12 [Example 73, ethyl 2-{[(3aR,9bR)-9b-(benzenesulfonyl)-7-[(2,6-dichlorophenyl)methoxy]-1H,2H,3H,3aH,4H,5H,9bH-benzo[e]indole-3-carbonyl]amino}acetate] | 314
CS(=O)(=O)N1CC[C@@]2(S(=O)(=O)c3ccccc3)c3ccc(OCc4c(Cl)cccc4Cl)cc3CC[C@@H]12 [Example 75, (3aR,9bR)-9b-(benzenesulfonyl)-7-[(2,6-dichlorophenyl)methoxy]-3-methanesulfonyl-1H,2H,3H,3aH,4H,5H,9bH-benzo[e]indole] | 212
O=C1CCCN1CCC(=O)N1CC[C@@]2(S(=O)(=O)c3ccccc3)c3ccc(OCc4c(Cl)cccc4Cl)cc3CC[C@@H]12 [Example 76, 1-{3-[(3aR,9bR)-9b-(benzenesulfonyl)-7-[(2,6-dichlorophenyl)methoxy]-1H,2H,3H,3aH,4H,5H,9bH-benzo[e]indol-3-yl]-3-oxopropyl}pyrrolidin-2-one] | 957
O=C1CCCN1CC(=O)N1CC[C@@]2(S(=O)(=O)c3ccccc3)c3ccc(OCc4c(Cl)cccc4Cl)cc3CC[C@@H]12 [Example 79, 1-{2-[(3aR,9bR)-9b-(benzenesulfonyl)-7-[(2,6-dichlorophenyl)methoxy]-1H,2H,3H,3aH,4H,5H,9bH-benzo[e]indol-3-yl]-2-oxoethyl}pyrrolidin-2-one] | 210
CC1(O)CN(C(=O)N2CC[C@@]3(S(=O)(=O)c4ccccc4)c4ccc(OCc5c(Cl)cccc5Cl)cc4CC[C@@H]23)C1 [Example 83, 1-[(3aR,9bR)-9b-(benzenesulfonyl)-7-[(2,6-dichlorophenyl)methoxy]-1H,2H,3H,3aH,4H,5H,9bH-benzo[e]indole-3-carbonyl]-3-methylazetidin-3-ol] | 353
O=C(N1CC(O)C1)N1CC[C@@]2(S(=O)(=O)c3ccccc3)c3ccc(OCc4c(Cl)cccc4Cl)cc3CC[C@@H]12 [Example 88, 1-[(3aR,9bR)-9b-(benzenesulfonyl)-7-[(2,6-dichlorophenyl)methoxy]-1H,2H,3H,3aH,4H,5H,9bH-benzo[e]indole-3-carbonyl] azetidin-3-ol] | 301

Molecules with a lower EC50, results first:

EC50 [nM] | SMILES
153 | NC(=O)CN1CC[C@@]2(S(=O)(=O)c3ccccc3)c3ccc(OCc4c(Cl)cccc4Cl)cc3CC[C@@H]12 [Example 70, 2-[(3aR,9bR)-9b-(benzenesulfonyl)-7-[(2,6-dichlorophenyl)methoxy]-1H,2H,3H,3aH,4H,5H,9bH-benzo[e]indol-3-yl]acetamide]
14 | O=C(CN1CCS(=O)(=O)CC1)N1CC[C@@]2(S(=O)(=O)c3ccccc3)c3ccc(OCc4c(Cl)cccc4Cl)cc3CC[C@@H]12 [Example 74, 4-{2-[(3aR,9bR)-9b-(benzenesulfonyl)-7-[(2,6-dichlorophenyl)methoxy]-1H,2H,3H,3aH,4H,5H,9bH-benzo[e]indol-3-yl]-2-oxoethyl}-1λ^6-thiomorpholine-1,1-dione]
19 | CN1CC(C(=O)N2CC[C@@]3(S(=O)(=O)c4ccccc4)c4ccc(OCc5c(Cl)cccc5Cl)cc4CC[C@@H]23)CC1=O (stereo partly drawn) [Example 77, 4-[(3aR,9bR)-9b-(benzenesulfonyl)-7-[(2,6-dichlorophenyl)methoxy]-1H,2H,3H,3aH,4H,5H,9bH-benzo[e]indole-3-carbonyl]-1-methylpyrrolidin-2-one]
140 | NC(=O)N1CCC(C(=O)N2CC[C@@]3(S(=O)(=O)c4ccccc4)c4ccc(OCc5ccccc5)cc4CC[C@@H]23)CC1 [Example 78, 4-[(3aR,9bR)-9b-(benzenesulfonyl)-7-(benzyloxy)-1H,2H,3H,3aH,4H,5H,9bH-benzo[e]indole-3-carbonyl]piperidine-1-carboxamide]
102 | O=C(N1CCOCC1)N1CC[C@@]2(S(=O)(=O)c3ccccc3)c3ccc(OCc4c(Cl)cccc4Cl)cc3CC[C@@H]12 [Example 80, 4-[(3aR,9bR)-9b-(benzenesulfonyl)-7-[(2,6-dichlorophenyl)methoxy]-1H,2H,3H,3aH,4H,5H,9bH-benzo[e]indole-3-carbonyl]morpholine]
25 | O=C(O)C12CCC(C(=O)N3CC[C@@]4(S(=O)(=O)c5ccccc5)c5ccc(OCc6c(Cl)cccc6Cl)cc5CC[C@@H]34)(CC1)CC2 [Example 81, 4-[(3aR,9bR)-9b-(benzenesulfonyl)-7-[(2,6-dichlorophenyl)methoxy]-1H,2H,3H,3aH,4H,5H,9bH-benzo[e]indole-3-carbonyl]bicyclo[2.2.2]octane-1-carboxylic acid]
97 | CS(=O)(=O)C1CCN(C(=O)N2CC[C@@]3(S(=O)(=O)c4ccccc4)c4ccc(OCc5c(Cl)cccc5Cl)cc4CC[C@@H]23)CC1 [Example 82, 1-[(3aR,9bR)-9b-(benzenesulfonyl)-7-[(2,6-dichlorophenyl)methoxy]-1H,2H,3H,3aH,4H,5H,9bH-benzo[e]indole-3-carbonyl]-4-methanesulfonylpiperidine]
15 | O=C(N1CCS(=O)(=O)CC1)N1CC[C@@]2(S(=O)(=O)c3ccccc3)c3ccc(OCc4c(Cl)cccc4Cl)cc3CC[C@@H]12 [Example 84, 4-[(3aR,9bR)-9b-(benzenesulfonyl)-7-[(2,6-dichlorophenyl)methoxy]-1H,2H,3H,3aH,4H,5H,9bH-benzo[e]indole-3-carbonyl]-1λ^6-thiomorpholine-1,1-dione]
18 | CS(=O)(=O)N1CC(NC(=O)N2CC[C@@]3(S(=O)(=O)c4ccccc4)c4ccc(OCc5c(Cl)cccc5Cl)cc4CC[C@@H]23)C1 [Example 85, (3aR,9bR)-9b-(benzenesulfonyl)-7-[(2,6-dichlorophenyl)methoxy]-N-(1-methanesulfonylazetidin-3-yl)-1H,2H,3H,3aH,4H,5H,9bH-benzo[e]indole-3-carboxamide]
159 | CC(C)(O)CCNC(=O)N1CC[C@@]2(S(=O)(=O)c3ccccc3)c3ccc(OCc4c(Cl)cccc4Cl)cc3CC[C@@H]12 [Example 86, (3aR,9bR)-9b-(benzenesulfonyl)-7-[(2,6-dichlorophenyl)methoxy]-N-(3-hydroxy-3-methylbutyl)-1H,2H,3H,3aH,4H,5H,9bH-benzo[e]indole-3-carboxamide]
39 | O=C(Nc1ccncc1)N1CC[C@@]2(S(=O)(=O)c3ccccc3)c3ccc(OCc4c(Cl)cccc4Cl)cc3CC[C@@H]12 [Example 87, (3aR,9bR)-9b-(benzenesulfonyl)-7-[(2,6-dichlorophenyl)methoxy]-N-(pyridin-4-yl)-1H,2H,3H,3aH,4H,5H,9bH-benzo[e]indole-3-carboxamide]
